Test results as given in article PMC6143625, “A high throughput screen for next-generation leads targeting malaria parasite transmission” (Nature Communications, 2018).

Key:
[1] = test system: P. falciparum stage V male gametocytes (male gamete formation); experiment: P. falciparum dual gamete formation assay (Pf DGFA), male readout (exflagellation), 48 h carry-over format; assay type: cell-based, Plasmodium falciparum NF54; conditions: primary screen, 2 uM, 48 h incubation, single replicate
Method: (§1) P. falciparum NF54 strain (originally isolated from an imported malaria case in the Netherlands in the 1980s; BEI Resources, cat. no. MRA-1000) asexual and sexual stages culture was performed as previously described. Gametocyte cultures were initiated at 1% asexual ring stage parasitaemia and 4% haematocrit in 40 ml final volume. To induce gametocyte production, complete culture medium (CM) (RPMI 1640 supplemented with 25 mM HEPES, 50 µg ml^−1 hypoxanthine, 2 g l^−1 NaHCO3 and 10% pooled human male type A+ serum) was replaced daily for 14 days without fresh erythrocyte addition. Human serum was obtained from Interstate Blood Bank, A^+ serotype; no aspirin 2 h before drawing and no antimalarials 2 weeks before drawing. On day 14 after culture induction, gametocyte production was assessed by thin smear and Giemsa staining, and exflagellation accurately counted in a haemocytometer. Gametocyte cultures with >0.2% exflagellation (compared to total erythrocyte cell number) were deemed acceptable for use in the Pf DGFA. Note, all human biological samples were sourced ethically and their research use was in accord with the terms of the informed consents under an IRB/EC approved protocol.
(§2) In screening mode, the assay was performed as described in Delves et al.[35] with a mean Z′ factor of 0.56 ± 0.14 (SD) (male) and 0.71 ± 0.17 (SD) (female). Pooled mature gametocyte cultures with the capacity to yield >0.2% exflagellation (of total cells) were diluted in CM to 14 million cells per ml and so that 700,000 cells were dispensed in 50 µl into each well of the warmed 384-well screening plates. Parasites were incubated in the plates with compounds for 48 h in a humidified chamber under 92%N2/5% CO2/3% O2 gas mix before gamete formation was triggered by addition of 10 µl per well ookinete medium (RPMI 1640 supplemented with 25 mM HEPES, 50 µg ml^−1 hypoxanthine, 2 g l^−1 NaHCO3, 100 µM xanthurenic acid) containing 0.5 µg ml^−1 anti-Pfs25 clone 4B7 (BEI Resources, cat. no. MRA-315) conjugated to the fluorophore Cy3 (GE Healthcare), and also by cooling the plate at 4 °C for 4 min and then a further 5 min at 28 °C. Exflagellation was recorded immediately by brightfield microscopy using a Nikon Ti-E widefield microscope at ×4 objective, ×1.5 zoom, recording a 10-frame video time-lapse over 2 s for each well. Afterwards, plates were incubated in the dark at 28 °C for a further 24 h to allow female gametes to maximally express Pfs25 on their surface. Female gamete formation was recorded by single-image fluorescence microscopy using the same microscope and magnification as above. Exflagellation and female gamete formation were quantified by specific algorithms designed with the open-source ICY Image Analysis software.
(§3) Assay performance statistics, such as signal to background ratio, Z′ and robust 3×SD activity cut-off were calculated using templates in ActivityBase XE (IDBS, Guilford, Surrey, UK). Hit population analysis and visualisation were conducted using Spotfire DecisionSite (Spotfire, Inc., Somerville, Massachusetts). The pIC50 (−log IC50) values were obtained using the ActivityBase XE nonlinear regression function in the full curve analysis bundle. In screening mode, the Pf DGFA achieved a mean Z′ factor of 0.56 ± 0.14 (SD) (male) and 0.71 ± 0.17 (SD) (female).

[2] = test system: P. falciparum stage V female gametocytes (female gamete formation); experiment: P. falciparum dual gamete formation assay (Pf DGFA), female readout (Pfs25 expression), 48 h carry-over format; assay type: cell-based, Plasmodium falciparum NF54; conditions: primary screen, 2 uM, 48 h incubation, single replicate
Method: as §1
as §2, with “Parasites were incubated in the plates with compounds for 48 h in a humidified chamber under” left out
as §3

Row | Compound | %Inhibition Male @2uM [1] [%] | %Inhibition Female @2uM [2] [%]
1 | NC(=O)c1ccc(N2CCCCC2)c(NC(=O)c2cc(Br)ccc2F)c1 [DDD01080647] | <30 | 45.72
2 | CCc1cnc(CN(C(C)=O)C2CCN(CCS(C)(=O)=O)C2)o1 (stereo not shown) [DDD01081064] | 46.67 | <30
3 | CCOC1CCC2(CCN(C(=O)c3csnn3)CC2)c2ccccc21 (stereo not shown) [DDD01081288] | 95.81 | <30
4 | CS(=O)(=O)N1Cc2ccnn2CC(C(=O)NCc2cccnc2)C1 (stereo not shown) [DDD01081357] | 43.36 | <30
5 | COc1ccc2c(c1)C1(CCNCC1)CC2NC1CC1 (stereo not shown) [DDD01081368] | 45.77 | <30
6 | O=C1CC[C@@H]2[C@@H](CCN2S(=O)(=O)C2CC2)N1CC1CC1 [DDD01081437] | 31.40 | <30
7 | c1c(CN2CCOCC2)nc2n1CCN(CC1CC1)C2 [DDD01081604] | 36.99 | <30
8 | CN(C)[C@@H]1CCN(S(C)(=O)=O)[C@H]1Cc1ccccc1 [DDD01081694] | 32.12 | <30
9 | CCc1cnc(N2CC[C@H]3[C@@H]2CCC(=O)N3c2ccccc2)nc1 [DDD01081766] | 33.06 | <30
10 | CC(C)n1nc(CN2CCCC2=O)c2c1CN(C(=O)c1ccc[nH]1)C2 [DDD01081769] | <30 | 30.49
11 | O=C(c1ccoc1)N1CCOC2(COCCN(CC3CC3)C2)C1 (stereo not shown) [DDD01082156] | <30 | 30.05
12 | CC(C)N(C)Cc1cncc2c1CCN(CC(=O)N(C)C)C2 [DDD01082190] | <30 | 42.20
13 | CC1c2ncc(Cn3cccn3)n2CCN1c1ncccn1 (stereo not shown) [DDD01082239] | <30 | 34.70
14 | CCCN1CCC(c2nc3ccc(-c4cccc(OC)c4)cn3n2)CC1 [DDD01082327] | <30 | 35.67
15 | CCOCC(=O)N1CCc2nc(C)nc(NC(C)C)c2CC1 [DDD01082409] | 45.90 | <30
16 | O=C(NC1CC1)[C@H]1CC[C@@H]2[C@@H](CCN2CCOCc2ccccc2)O1 [DDD01082763] | 87.75 | <30
17 | Cn1cncc1C(=O)N1C[C@@H]2CCN(c3cnccn3)C[C@@H]2C1 [DDD01082777] | <30 | 40.85
18 | O=S(=O)(c1ccccc1)N1CCC2(CCCN2Cc2ccccc2Cl)C1 (stereo not shown) [DDD01083172] | 37.32 | <30
19 | CS(=O)(=O)NCc1nnc2n1CCN(Cc1cccnc1)C2 [DDD01083181] | 31.87 | <30
20 | COc1ccc(CN2CC[C@@H](O)[C@@H]2Cc2cnn(C)c2)cc1 [DDD01083182] | 38.13 | <30
21 | CC1=N[C@@]2(CC[C@@H]3CN(S(=O)(=O)CC(C)C)C[C@@H]32)C(=O)N1CC1CC1 [DDD01083262] | <30 | 94.03
22 | CN(C)C(=O)N1CCCC2(CCN(c3ccsc3)C2=O)C1 (stereo not shown) [DDD01083808] | <30 | 43.49

Row | Compound | %Inhibition Male @2uM [1] [%] | %Inhibition Female @2uM [2] [%]
23 | CN(C)[C@@H]1CCN(C(=O)Cc2cccs2)[C@H]1Cc1ccncc1 [DDD01083822] | 35.35 | <30
24 | O=C(c1ccnnc1)N1C[C@H](OCc2ccccn2)[C@H]2COC[C@H]21 [DDD01084503] | <30 | 32.17
25 | CN(C)CCN1CCN(C)c2nc(-c3ccccc3)ncc2C1=O [DDD01235874] | 34.25 | <30
26 | CC(C)[C@H](NS(C)(=O)=O)C(=O)NCc1cc(-c2ccco2)n[nH]1 [DDD01235905] | 31.18 | <30
27 | CC(C)[C@H](NS(C)(=O)=O)C(=O)NCc1cc(-c2ccccc2)n[nH]1 [DDD01235932] | 32.71 | <30
28 | CC(C)(C)Nc1nc(-c2cccnc2)c(-c2ccnc(NCCO)n2)s1 [DDD01235967] | 38.85 | <30
29 | CCOCC(=O)N1CCC(c2nccn2Cc2cscn2)CC1 [DDD01243474] | 109.47 | <30
30 | O=C(O)CCc1cc2n(n1)CCCN(C(=O)c1ccc(F)cc1F)C2 [DDD01243729] | 76.28 | <30
31 | NCC1CCCN(c2nc(-c3ccccc3)nc3c2CCNCC3)C1 (stereo not shown) [DDD01244614] | 71.27 | 30.18
32 | Cn1nnnc1SCCNC(=O)C1CCN(C(=O)C2CC2)CC1 [DDD01244691] | 73.04 | <30
33 | CCC(C(=O)N(C)C)N1CCC(c2nccn2Cc2cscn2)CC1 (stereo not shown) [DDD01244731] | 126.32 | <30
34 | CN(C)c1ccc(C(=O)N2CCCN(C3CCCCC3)CC2)cn1 [DDD01244855] | <30 | 30.12
35 | COC(=O)c1ccc(C(=O)N2CCCC(Nc3ccc(F)cc3)C2)cc1 (stereo not shown) [DDD01244904] | 109.47 | <30
36 | CN(Cc1cnn(C)c1)c1nccc(-c2cc(C(=O)O)ccn2)n1 [DDD01245058] | <30 | 33.22
37 | Cc1nc[nH]c1CN1CCn2nc(CN3Cc4ccccc4C3)cc2C1 [DDD01245298] | 30.45 | <30
38 | COc1cccc2c1OCC(C(=O)N1CCN(CCS(C)(=O)=O)CC1)C2 (stereo not shown) [DDD01245746] | 56.62 | <30
39 | CCNC(=O)[C@@H]1C[C@H](NC(=O)c2cncnc2C)CN1Cc1ccsc1 [DDD01245940] | <30 | 96.27
40 | Cc1cccc(=O)n1CCCNc1nc(N(C)C)nc2c1CCNC2 [DDD01245962] | 35.31 | <30
41 | CN(C)Cc1nnc(C2CCN(c3ncccc3Cl)CC2)n1C1CC1 [DDD01246077] | 30.72 | <30
42 | COCCN(C)CCN1CC2(CCN(C3CCOC3)CC2)OC1=O (stereo not shown) [DDD01246090] | 126.32 | <30
43 | COc1cccc2c1OCC(C(=O)N1Cc3ccccc3C1)C2 (stereo not shown) [DDD01246187] | 112.07 | <30
44 | O=C(c1ccccn1)N1C[C@H]2CC[C@@H](C1)N(C(=O)CCN1CCCC1)C2 [DDD01246765] | 99.89 | <30
